# Measured values: US20190298740A1, “METHODS AND COMPOSITIONS FOR TREATING HALLUCINATIONS AND CONDITIONS RELATED TO THE SAME” (Enterin, Inc., priority 2018, published 2019)
# Entries after “also recorded” stand apart in the source; their conditions may differ.
# Assays:
# patients with PD [1] = assay: CNS symptoms in Stage 2 (UPDRS, MMSE, PDHQ, BDI-II, direct questioning); assay type: in vivo, human; details: for PDHQ / BDI-II / UPDRS Part 2 (Daily living) / MMSE / UPDRS Part 3 (Motor): mean (SD); for PDHQ: baseline 1.3 (2.99); for BDI-II: baseline 10.9 (7.12); for UPDRS Part 2 (Daily living): baseline 14.9 (8.11); for MMSE: baseline 28.4 (1.75); for UPDRS Part 3 (Motor): baseline 35.3 (14.35)
# Description: (§1) Exploratory end-points, in addition to constipation, included for example, (i) depression assessed using the Beck Depression Inventory (BDI-II) (Steer et al. 2000) and Unified Parkinson's Disease Rating Scale (UPDRS); (ii) cognition assessed using the Mini Mental State Examination (MMSE) (Palsteia et al. 2018), Unified Parkinson's Disease Rating Scale (UPDRS), and Trail Making Test (TMT); (iii) sleep and REM-behavior disorder (RBD) using a daily sleep diary, I-Button Temperature Assessment, a REM sleep behavior disorder (RBD) questionnaire (RBDQ) (Stiasny-Kolster et al. 2007), and the UPDRS; (iv) hallucinations assessed using the PD hallucinations questionnaire (PDHQ) (Papapetropoulos et al. 2008), the UPDRS, and direct questioning; (v) fatigue using the Parkinson's Disease Fatigue Scale (PFS-16) and the UPDRS; (vi) motor functions using the UPDRS; and (vii) non-motor functions using the UPDRS.
# (§2) Assessments were made at baseline and at the end of the fixed dose and washout periods. Circadian system status was evaluated by continuously monitoring wrist skin temperature (Thermochron iButton DS1921H; Maxim, Dallas) following published procedures (Sarabia et al. 2008).
# An exploratory analysis was done with respect to the sleep data, the body temperature data, mood, fatigue, hallucinations, cognition and other motor and non-motor symptoms of PD. Continuous measurements within a subject were compared with a paired t-test and continuous measurements between subject groups were compared with a two-group t-test. Categorical data were compared with a chi-squared test or a Fisher's exact test if the expected cell counts are too small for a chi-squared test.
# CNS symptoms were evaluated at baseline and at the end of the fixed dose period and the wash-out period (Table 13). Total UPDRS score was 64.4 at baseline, 60.6 at the end of the fixed dose period and 55.7 at the end of the wash-out period (p=0.002); similarly, the motor component of the UPDRS improved from 35.3 at baseline to 33.3 at the end of fixed dose to 30.2 at the end of wash-out (p=0.006). MMSE improved from 28.4 at baseline to 28.7 during treatment and to 29.3 during wash-out (p=0.0006). […] PDHQ improved from 1.3 at baseline to 1.8 during treatment and 0.9 during wash-out (p=0.03). Hallucinations were reported by 5 patients at baseline and delusions in 1 patient. […] The frequency of arm or leg thrashing reported in the sleep diary diminished progressively from 2.2 episodes/week at baseline to 0 at maximal dose. […] Unlike stool-related indices, the improvement in many CNS symptoms persisted during wash-out.
# patients with PD [2] = assay: Sleep diary: total sleep time and REM-behavior disorder; assay type: in vivo, human
# Description: (5) Sleep Diary (participants completed a sleep diary on a daily basis throughout the study. The diaries included time into bed and estimated time to sleep as well as wake time and duration during the night);
# as §1
# patients with PD [3] = assay: Circadian rhythm of wrist skin temperature; assay type: in vivo, human; details: oral, 12 patients with evaluable data
# Experimental: (6) I-Button Temperature Assessment. The I-Button is a small, rugged self-sufficient system that measures temperature and records the results in a protected memory section. The Thermochron I-Button DS1921H (Maxim Integrated, Dallas, Tex.) was used for skin temperature measurement. I-Buttons were programmed to sample every 10 mins., and attached to a double-sided cotton sport wrist band using Velcro, with the sensor face of the I-Button placed over the inside of the wrist, on the radial artery of the dominant hand. Subjects removed and replaced the data logger when necessary (i.e., to have a bath or shower). […] From the collected data, the mesor, amplitude, acrophase (time of peak temperature), Rayleight test (an index of interdaily stability), mean waveforms are calculated);
# as §2
# Circadian rhythm of skin temperature was evaluable in 12 patients (i.e., those who had recordings that extended from baseline through washout). Circadian system functionality was evaluated by continuously monitoring wrist skin temperature using a temperature sensor (Thermochron iButton DS1921H; Maxim, Dallas, Tex.) (Sarabia et al. 2008). […]
# [4] = Preclinical oral dosing studies in dogs; details: dog, in vivo
# C. elegans αS model = details: in vivo, C. elegans model of PD; cited from earlier work
# [5] = Stage 2, n = 34, fixed dose, listed as Squalamine (ENT-01)
structure (smiles),measurement,setting,value
"CC(C)[C@@H](CC[C@@H](C)[C@H]1CC[C@H]2[C@@H]3[C@H](O)C[C@H]4C[C@@H](NCCCNCCCCN)CC[C@]4(C)[C@H]3CC[C@]12C)OS(=O)(=O)O (single isomer, unassigned) [squalamine (ENT-01)]",PDHQ,"patients with PD [1]; Stage 2, n = 34, fixed dose",1.8
same,PDHQ,patients with PD [1]; [5],1.8 (3.34)
same,BDI-II,"patients with PD [1]; Stage 2, n = 34, fixed dose",9.9
same,UPDRS Part 2 (Daily living),"patients with PD [1]; Stage 2, n = 34, fixed dose",14.7 (9.02)
same,MMSE,"patients with PD [1]; Stage 2, n = 34, fixed dose",28.7
same,UPDRS Part 3 (Motor),"patients with PD [1]; Stage 2, n = 34, fixed dose",33.3
same,UPDRS Part 3 (Motor),patients with PD [1]; [5],33.3 (15.20)
same,PDHQ,"patients with PD [1]; Stage 2, n = 34, wash-out",0.9
same,BDI-II,"patients with PD [1]; Stage 2, n = 34, wash-out",8.7
same,UPDRS Part 2 (Daily living),"patients with PD [1]; Stage 2, n = 34, wash-out",14.1 (8.21)
same,MMSE,"patients with PD [1]; Stage 2, n = 34, wash-out",29.3
same,UPDRS Part 3 (Motor),"patients with PD [1]; Stage 2, n = 34, wash-out",30.2
same,UPDRS Part 3 (Motor),"patients with PD [1]; Stage 2, n = 34, wash-out, listed as Squalamine (ENT-01)",30.2 (13.23)
same,Dose at which the hallucinations disappeared,"patients with PD [1]; one patient, colonic prokinetic dose 175 mg not yet reached",100 mg
same,Dose beyond which total sleep time was consistently higher than baseline,patients with PD [2]; Stage 2,> 125 mg
same,Total sleep time,"patients with PD [2]; at 250 mg, baseline 7.1 hours",8.4 h
same,Frequency of arm or leg thrashing (sleep diary),"patients with PD [2]; at maximal dose, baseline 2.2",0 episodes/week
same,"Circadian rhythm of skin temperature, overall",patients with PD [3],significant positive impact; also recorded: improved all markers of healthy circadian function
same,bioavailability,[4],~0.1%
same,Formation of aggregates of αS,C. elegans αS model,inhibits the formation of αS aggregates
